Laboratory results: the supplement of paper PMC4862054

Assays:
MDA-MB-453 [1] = conditions: 72 h
Summary of the method: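 Breast cancer cell lines in 20 µl suspension were seeded onto 384-well plates pre-loaded with compound dissolved in 5 µl medium, then incubated 72 h. For viability, 2.5 µl CellTiter-Blue was added for 2 h at 37 °C and fluorescence read at 560/590 nm. Each plate was normalised to vehicle and a positive kill control and checked by Z'-factor. EC50 comes from the fitted percent-inhibition dose-response curve, censored at the highest concentration; rows with zero drug sensitivity score were dropped.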

SK-BR-3 = assay: drug sensitivity score (DSS), CellTiter-Blue viability (DSS (AUC-based score)); higher = stronger viability inhibition; extreme values may be limits of the assay; conditions: incubation time: 72 h
Method: (§1)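 DSRT with the CellTiter-Blue (resazurin reduction) viability readout, fluorescence 560/590 nm, 72 h incubation. Plates were normalised to DMSO and benzethonium chloride controls. DSS is computed from the area under the fitted dose-response curve (5 or 9 concentrations).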

BT-474 = assay: as above; conditions: incubation time: 72 h
Method: as §1

CAL-51 [2] = assay: as above; conditions: incubation time: 72 h
Method: as §1

MDA-MB-453 [3] = assay: as above; conditions: incubation time: 72 h
Method: as §1

MFM-223 = assay: as above; conditions: incubation time: 72 h
Method: as §1

CAL-120 = assay: as above; conditions: incubation time: 72 h
Method: as §1

HCC1937 = assay: as above; conditions: incubation time: 72 h
Method: as §1

HDQ-P1 [4] = assay: as above; conditions: incubation time: 72 h
Method: as §1

HCC1143 = assay: as above; conditions: incubation time: 72 h
Method: as §1

HCC1599 = assay: as above; conditions: incubation time: 72 h
Method: as §1

CAL-85-1 [5] = assay: as above; conditions: incubation time: 72 h
Method: as §1

MDA-MB-231 = assay: as above; conditions: incubation time: 72 h
Method: as §1

MDA-MB-436 = assay: as above; conditions: incubation time: 72 h
Method: as §1

Hs578T = assay: as above; conditions: incubation time: 72 h
Method: as §1

BT-549 = assay: as above; conditions: incubation time: 72 h
Method: as §1

MDA-MB-468 = assay: as above; conditions: incubation time: 72 h
Method: as §1

CAL-148 [6] = assay: as above; conditions: incubation time: 72 h
Method: as §1

DU-4475 [7] = assay: as above; conditions: incubation time: 72 h
Method: as §1

CAL-51 [8] = assay: normalised viability (% of control), CellTiter-Blue; higher = more viable cells (about 100 = DMSO control); conditions: incubation time: 72 h
Method: (§2)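 DSRT, CellTiter-Blue viability, 72 h incubation. Signal is normalised to DMSO and benzethonium chloride controls. Value is the normalised response at dose 6.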

MDA-MB-453 [9] = assay: as above; conditions: incubation time: 72 h
Method: as §2

HDQ-P1 [10] = assay: as above; conditions: incubation time: 72 h
Method: as §2

CAL-85-1 [11] = assay: as above; conditions: incubation time: 72 h
Method: as §2

CAL-148 [12] = assay: as above; conditions: incubation time: 72 h
Method: as §2

DU-4475 [13] = assay: as above; conditions: incubation time: 72 h
Method: as §2

EC50, CellTiter-Blue viability (MDA-MB-453 [1]) [nM] | SMILES | drug sensitivity score (SK-BR-3) | drug sensitivity score (BT-474) | drug sensitivity score (CAL-51 [2]) | drug sensitivity score (MDA-MB-453 [3]) | drug sensitivity score (MFM-223) | drug sensitivity score (CAL-120) | drug sensitivity score (HCC1937) | drug sensitivity score (HDQ-P1 [4]) | drug sensitivity score (HCC1143) | drug sensitivity score (HCC1599) | drug sensitivity score (CAL-85-1 [5]) | drug sensitivity score (MDA-MB-231) | drug sensitivity score (MDA-MB-436) | drug sensitivity score (Hs578T) | drug sensitivity score (BT-549) | drug sensitivity score (MDA-MB-468) | drug sensitivity score (CAL-148 [6]) | drug sensitivity score (DU-4475 [7]) | normalised viability (CAL-51 [8]; 300 nM) [%] | normalised viability (MDA-MB-453 [9]; 300 nM) [%] | normalised viability (HDQ-P1 [10]; 300 nM) [%] | normalised viability (CAL-85-1 [11]; 300 nM) [%] | normalised viability (CAL-148 [12]; 300 nM) [%] | normalised viability (DU-4475 [13]; 300 nM) [%] | normalised viability (CAL-51 [8]; 150 nM) [%] | normalised viability (MDA-MB-453 [9]; 150 nM) [%] | normalised viability (HDQ-P1 [10]; 150 nM) [%] | normalised viability (CAL-85-1 [11]; 150 nM) [%] | normalised viability (CAL-148 [12]; 150 nM) [%] | normalised viability (DU-4475 [13]; 150 nM) [%]
17.1 | COc1ccc(-c2ccc3c(N4CCOC[C@@H]4C)nc(N4CCOC[C@@H]4C)nc3n2)cc1CO [AZD8055] | 28.6 | 20 | 28.8 | 29 | 27.6 | 25 | 21.7 | 23.9 | 18.1 | 14.5 | 23.6 | 21.4 | 15.6 | 23.6 | 22.4 | 16.8 | 28 | 20.9 | 16.9 | 15.7 | 26.9 | 28.8 | 10.4 | 29.8 | – | – | – | – | – | –
– | C[C@]12CC[C@H](O)CC1=CC[C@@H]1[C@@H]2CC[C@]2(C)C(c3cccnc3)=CC[C@@H]12 [Abiraterone] | 0 | 0 | 0 | 0 | 0 | 0 | 0 | 0 | 0 | 0 | 0 | 0 | 0 | 0 | 0 | 0 | 0 | 0 | – | – | – | – | – | – | 102 | 105 | 79.2 | 93.9 | 93.8 | 92.2
4230 | CN(C)CCN1C(=O)c2cccc3cc(N)cc(c23)C1=O [Amonafide] | 2.78 | 0.749 | 5.33 | 4.67 | 1.69 | 5.69 | 7.96 | 2.28 | 0.876 | 1.04 | 3.78 | 7.74 | 3.57 | 1.1 | 0.97 | 1.26 | 7.32 | 5.45 | 109 | 92.5 | 67.5 | 91.7 | 89.8 | 92.3 | – | – | – | – | – | –
